From patent US8536202B2, “Triazole-substituted anthranilamides as pesticides” (Bayer Cropscience AG, priority 2010, dated 2013)
Read-outs that look alike come from different tables or passages of the source.

Experiments:
[1] = tested on: larvae of the mustard beetle (Phaedon cochleariae); assay: Phaedon test (PHAECO spray treatment); assay type: in vivo; settings: 168 h, read-out: activity in %
Outline: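 Mortality of mustard beetle larvae, expressed as percent killed (100% all, 0% none), assessed 7 days after spraying. Spray liquor made from compound in acetone plus dimethylformamide with alkylaryl polyglycol ether, diluted in emulsifier-containing water to the desired concentration.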

[2] = tested on: caterpillars of the armyworm (Spodoptera frugiperda); assay: Spodoptera frugiperda test (SPODFR spray treatment); assay type: in vivo; settings: 168 h, read-out: activity in %
Outline: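 Percent caterpillar mortality read 7 days after infestation (0% none killed, 100% all killed). Treatment was a spray of the acetone/DMF/emulsifier formulation, water-diluted to test concentration, onto Zea mays leaf discs, allowed to dry before larvae were added.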

[3] = log P determination by HPLC on reversed-phase columns (EEC Directive 79/831 Annex V.A8); assay type: physicochemical; settings: pH 2.7
Outline: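 Calibration used unbranched alkan-2-ones of 3 to 16 carbons with known log P, values interpolated linearly from retention times between neighbouring standards. Acidic-range LC-MS run at pH 2.7, eluents aqueous and acetonitrile formic acid 0.1%, linear gradient 10% to 95% acetonitrile.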

[4] = HPLC on reversed-phase columns (C 18), EEC Directive 79/831 Annex V.A8, read-out: logP
[5] = reversed-phase C18 HPLC column, HPLC on reversed-phase columns (C 18), EEC Directive 79/831 Annex V.A8, read-out: logP

Row | chromatographic logP [3, 5] | Structure (SMILES) | pest or weed control at 100 g/ha [1] [%] | pest or weed control at 100 g/ha [2] [%] | chromatographic logP [3, 4] | pest or weed control at 100 g/ha ([1]; 100 g/ha, after 7 days) [%] | pest or weed control at 100 g/ha ([2]; 100 g/ha, after 7 days) [%] | chromatographic logP [3]
1 |  | Cc1cc(C#N)cc(C(=O)NC2CC2)c1NC(=O)c1cc(Cn2ncc(C(F)(F)C(F)(F)C(F)(F)F)n2)nn1-c1ncccc1Cl [Example 376] | 100 | 100 | 3.63 |  |  | 
2 |  | CNC(=O)c1cc(C#N)cc(C)c1NC(=O)c1cc(Cn2cc(-c3ccc(Cl)cc3Cl)nn2)nn1-c1ncccc1Cl [Example 34] |  |  |  | 100 | 100 | 3.2
3 |  | CNC(=O)c1cc(Cl)cc(C)c1NC(=O)c1cc(Cn2nc3ccc(C(F)(F)F)cc3n2)nn1-c1ncccc1Cl [Example 74] |  |  |  | 100 | 100 | 3.48
4 |  | Cc1cc(Cl)cc(C(=O)NC(C)C2CC2)c1NC(=O)c1cc(Cn2nc(C(F)(F)F)c(C(F)(F)F)n2)nn1-c1ncccc1Cl (stereo not drawn) [Example 410] |  |  |  | 100 | 100 | 4.5
5 |  | Cc1cc(Cl)cc(C(=O)NC(C)C2CC2)c1NC(=O)c1cc(Cn2ncc(C(F)(F)C(F)(F)F)n2)nn1-c1ncccc1Cl (stereo not drawn) [Example 351] |  |  |  | 100 | 100 | 4.21
6 |  | CNC(=O)c1cc(Cl)cc(C)c1NC(=O)c1cc(Cn2ncc(C(F)(C(F)(F)F)C(F)(F)F)n2)nn1-c1ncccc1Cl [Example 257] |  |  |  | 100 | 100 | 3.76
7 |  | CNC(=O)c1cc(Cl)cc(C)c1NC(=O)c1cc(Cn2nc3ccc([N+](=O)[O-])cc3n2)nn1-c1ncccc1Cl [Example 75] |  |  |  | 100 | 100 | 2.95
8 |  | N#CCNC(=O)c1cc(Cl)cc(Cl)c1NC(=O)c1cc(Cn2ncc(C(F)(F)F)n2)nn1-c1ncccc1Cl [Example 154] |  |  |  | 100 | 100 | 2.9
9 |  | Cc1cc(Cl)cc(C(=O)NC(C)C2CC2)c1NC(=O)c1cc(Cn2ncc(C(F)(F)C(F)(F)C(F)(F)F)n2)nn1-c1ncccc1Cl (stereo not drawn) [Example 379] | 100 | 100 | 4.57 |  |  | 
10 |  | Cc1cc(Cl)cc(C(=O)NC(C)C)c1NC(=O)c1cc(Cn2ncc(C(F)(C(F)(F)F)C(F)(F)F)n2)nn1-c1ncccc1Cl [Example 259] |  |  |  | 100 | 100 | 4.3
11 |  | Cc1cc(C#N)cc(C(=O)NC(C)(C)C)c1NC(=O)c1cc(Cn2nc3ccc(Br)cc3n2)nn1-c1ncccc1Cl [Example 107] |  |  |  | 100 | 100 | 3.85
12 |  | CNC(=O)c1cc(C#N)cc(C)c1NC(=O)c1cc(Cn2nnc3c(Cl)c(Cl)c(Cl)c(Cl)c32)nn1-c1ncccc1Cl [Example 92] |  |  |  | 100 | 100 | 3.79
13 |  | Cc1cc(C#N)cc(C(N)=O)c1NC(=O)c1cc(Cn2cc(-c3ccc(C(F)(F)F)cc3)nn2)nn1-c1ncccc1Cl [Example 2] |  |  |  | 100 | 100 | 2.81
14 |  | Cc1cc(I)cc(C(=O)NC(C)C)c1NC(=O)c1cc(Cn2ncc(C(F)(F)C(F)(F)C(F)(F)F)n2)nn1-c1ncccc1Cl [Example 371] | 100 | 100 | 4.46 |  |  | 
15 | 4.53 | CC(C)(C)NC(=O)c1cc(Cl)cc(Cl)c1NC(=O)c1cc(Cn2ncc(C(F)(C(F)(F)F)C(F)(F)F)n2)nn1-c1ncccc1Cl [Example 276] |  |  |  | 100 | 100 | 
16 |  | Cc1cc(I)cc(C(=O)NC(C)C)c1NC(=O)c1cc(Cn2cc(C(F)(F)C(F)(F)C(F)(F)F)nn2)nn1-c1ncccc1Cl [Example 322] | 100 | 100 | 4.07 |  |  | 
17 |  | Cc1cc(I)cc(C(=O)NCC2CC2)c1NC(=O)c1cc(Cn2ncc(C(F)(F)C(F)(F)C(F)(F)F)n2)nn1-c1ncccc1Cl [Example 382] | 100 | 100 | 4.59 |  |  | 
18 | 3.95 | Cc1cc(C#N)cc(C(=O)NCC2CC2)c1NC(=O)c1cc(Cn2ncc(C(F)(C(F)(F)F)C(F)(F)F)n2)nn1-c1ncccc1Cl [Example 253] |  |  |  | 100 | 100 | 
19 |  | CNC(=O)c1cc(Cl)cc(C)c1NC(=O)c1cc(Cn2nc3ccc(Cl)cc3n2)nn1-c1ncccc1Cl [Example 72] |  |  |  | 100 | 100 | 3.28
20 |  | Cc1cc(I)cc(C(=O)NC(C)C2CC2)c1NC(=O)c1cc(Cn2ncc(C(F)(F)C(F)(F)C(F)(F)F)n2)nn1-c1ncccc1Cl (stereo not drawn) [Example 386] | 100 | 100 | 4.82 |  |  | 
21 |  | Cc1cc(C#N)cc(C(=O)NC(C)(C)C)c1NC(=O)c1cc(Cn2cc(-c3cccc(Cl)c3)nn2)nn1-c1ncccc1Cl [Example 57] |  |  |  | 100 | 83 | 3.55
22 |  | Cc1cc(I)cc(C(=O)NC2CC2)c1NC(=O)c1cc(Cn2nc(C(F)(F)F)c(C(F)(F)F)n2)nn1-c1ncccc1Cl [Example 390] |  |  |  | 100 | 100 | 4.19
23 |  | CNC(=O)c1cc(Cl)cc(C)c1NC(=O)c1cc(Cn2ncc(-c3ccccc3Cl)n2)nn1-c1ncccc1Cl [Example 27] |  |  |  | 100 | 100 | 3.43
24 | 3.89 | Cc1cc(C#N)cc(C(=O)NC(C)C)c1NC(=O)c1cc(Cn2ncc(C(F)(C(F)(F)F)C(F)(F)F)n2)nn1-c1ncccc1Cl [Example 251] |  |  |  | 100 | 100 | 
25 |  | Cc1cc(Cl)cc(C(=O)NC(C)C2CC2)c1NC(=O)c1cc(Cn2ccnn2)nn1-c1ncccc1Cl (stereo not drawn) [Example 117] |  |  |  | 100 | 100 | 2.41
26 |  | CCNC(=O)c1cc(Cl)cc(C)c1NC(=O)c1cc(Cn2nc(C(F)(F)F)c(C(F)(F)F)n2)nn1-c1ncccc1Cl [Example 392] |  |  |  | 100 | 100 | 3.98
27 |  | CNC(=O)c1cc(Cl)cc(C)c1NC(=O)c1cc(Cn2nc3cc(Cl)c(Cl)cc3n2)nn1-c1ncccc1Cl [Example 77] |  |  |  | 100 | 100 | 3.73
28 |  | Cc1cc(Cl)cc(C(=O)NCC2CC2)c1NC(=O)c1cc(Cn2ncc(C(F)(F)C(F)(F)C(F)(F)F)n2)nn1-c1ncccc1Cl [Example 366] | 100 | 100 | 4.34 |  |  | 
29 |  | Cc1cc(Cl)cc(C(=O)NC(C)C2CC2)c1NC(=O)c1cc(Cn2nccn2)nn1-c1ncccc1Cl (stereo not drawn) [Example 122] |  |  |  | 100 | 100 | 2.81
30 |  | Cc1cc(Cl)cc(C(N)=O)c1NC(=O)c1cc(Cn2nc(C(F)(F)F)c(C(F)(F)F)n2)nn1-c1ncccc1Cl [Example 407] |  |  |  | 100 | 100 | 3.49
